In patent publication US9981907B2, “Low molecular weight cationic lipids for oligonucleotide delivery” (SIRNA THERAPEUTICS, INC., priority 2010, dated 2018):

What was measured:
[1] = system: mRNA transcript for the firefly (Photinus pyralis) luciferase gene; test: Mouse in vivo evaluation of efficacy (luciferase siRNA LNP/RDV, liver luminescence); settings: LSL-Luc transgenic mice, RDV with Luc siRNA tail vein injected, 0.1 to 0.5 mg/kg siRNA, imaged 48 hours post dose; compared with RDV containing octyl-CLinDMA (OCD); FIG. 1
Description: LNPs utilizing Compound 1, in the nominal compositions described immediately above, were evaluated for in vivo efficacy. The siRNA targets the mRNA transcript for the firefly (Photinus pyralis) luciferase gene (Accession #M15077). […] The in vivo luciferase model employs a transgenic mouse in which the firefly luciferase coding sequence is present in all cells. ROSA26-LoxP-Stop-LoxP-Luc (LSL-Luc) transgenic mice licensed from the Dana Farber Cancer Institute are induced to express the Luciferase gene by first removing the LSL sequence with a recombinant Ad-Cre virus (Vector Biolabs). Due to the organo-tropic nature of the virus, expression is limited to the liver when delivered via tail vein injection. Luciferase expression levels in liver are quantitated by measuring light output, using an IVIS imager (Xenogen) following administration of the luciferin substrate (Caliper Life Sciences). Pre-dose luminescence levels are measured prior to administration of the RDVs. Luciferin in PBS (15 mg/mL) is intraperitoneally (IP) injected in a volume of 150 μL. After a four minute incubation period mice are anesthetized with isoflurane and placed in the IVIS imager. The RDVs (containing siRNA) in PBS vehicle were tail vein injected n a volume of 0.2 mL. […] In vivo efficacy results are expressed as % inhibition of luminescence relative to pre-dose luminescence levels. […]

[2] = Rat in vivo toxicity (survival after LNP dosing); settings: for Rats that failed to survive 48 hours: rats treated with 3 mg/kg
Description: Six hours post dose, food is removed from the cages. Animal necropsy is performed 24 hours after LNP dosing. Rats are anesthetized under isoflurane for 5 minutes, then maintained under anesthesia by placing them in nose cones continuing the delivery of isoflurane until ex-sanguination is completed. Blood is collected from the vena cava using a 23 gauge butterfly venipuncture set and aliquoted to serum separator vacutainers for serum chemistry analysis. Punches of the excised caudate liver lobe are taken and placed in RNALater (Ambion) for mRNA analysis. Preserved liver tissue was homogenized and total RNA isolated using a Qiagen bead mill and the Qiagen miRNA-Easy RNA isolation kit following the manufacturer's instructions. Liver ApoB mRNA levels were determined by quantitative RT-PCR. Message was amplified from purified RNA utilizing a rat ApoB commercial probe set (Applied Biosystems Cat #RN01499054_m1). The PCR reaction was performed on an ABI 7500 instrument with a 96-well Fast Block. The ApoB mRNA level is normalized to the housekeeping PPIB (NM 011149) mRNA. PPIB mRNA levels were determined by RT-PCR using a commercial probe set (Applied Biosystems Cat. No. Mm00478295_m1). Results are expressed as a ratio of ApoB mRNA/PPIB mRNA. All mRNA data is expressed relative to the PBS control dose. Serum ALT and AST analysis were performed on the Siemens Advia 1800 Clinical Chemistry Analyzer utilizing the Siemens alanine aminotransferase (Cat #03039631) and aspartate aminotransferase (Cat #03039631) reagents. […] 3 out of 4 rats treated with 6 mg/kg Compound 2 survived at 48 hours post dose.

[3] = Determination of cationic lipid levels in rat liver (LC/MS-MS); type: in vivo; settings: rats dosed with RDV; compared with RDV containing DLinKC2DMA (Compound 4) or MC3 (Compound 3); FIG. 3
Description: Liver tissue was weighed into 20-ml vials and homogenized in 9 v/w of water using a GenoGrinder 2000 (OPS Diagnostics, 1600 strokes/min, 5 min). A 50 μL aliquot of each tissue homogenate was mixed with 300 μL of extraction/protein precipitating solvent (50/50 acetonitrile/methanol containing 500 nM internal standard) and the plate was centrifuged to sediment precipitated protein. A volume of 200 μL of each supernatant was then transferred to separate wells of a 96-well plate and 10 μl samples were directly analyzed by LC/MS-MS.
Standards were prepared by spiking known amounts of a methanol stock solution of compound into untreated rat liver homogenate (9 vol water/weight liver). Aliquots (50 μL) each standard/liver homogenate was mixed with 300 μL of extraction/protein precipitating solvent (50/50 acetonitrile/methanol containing 500 nM internal standard) and the plate was centrifuged to sediment precipitated protein. A volume of 200 μL of each supernatant was transferred to separate wells of a 96-well plate and 10 μl of each standard was directly analyzed by LC/MS-MS.
Absolute quantification versus standards prepared and extracted from liver homogenate was performed using an Aria LX-2 HPLC system (Thermo Scientific) coupled to an API 4000 triple quadrupole mass spectrometer (Applied Biosystems). […]

CCCCC/C=C\C/C=C\CCCCCCCCCC(CCCCCCCCC)OC(=O)CCCN(C)C (centres unmarked) [Compound 1, (20Z,23Z)-nonacosa-20,23-dien-10-yl 4-(dimethylamino)butanoate]
In vivo efficacy, % inhibition of luminescence relative to pre-dose luminescence levels [1]: Greater efficacy

CCCCCCCC/C=C\CCCCCCCC(CCCCCCCCC)OC(=O)CCCN(C)C (centres unmarked) [Compound 2, (18Z)-heptacos-18-en-10-yl 4-(dimethylamino)butanoate]
Rats survived at 48 hours post dose ([2]; female, Sprague-Dawley (Crl:CD(SD)), rat, in vivo, 6 mg/kg, 48 h): 3 out of 4 | Cationic lipid liver levels [3]: lower

CCCCC/C=C\C/C=C\CCCCCCCCC(CCCCCCCC/C=C\C/C=C\CCCCC)OC(=O)CCCN(C)C [Compound 3, MC3]
Rats that failed to survive 48 hours [2]: 2 out of 4

CCCCC/C=C\C/C=C\CCCCCCCCC1(CCCCCCCC/C=C\C/C=C\CCCCC)OCC(CCN(C)C)O1 (centres unmarked) [Compound 4, DLinKC2DMA]
Rats that failed to survive 48 hours [2]: 3 out of 4
